Where two headings read alike, the source gives them in different places.
Experiments:
[1] = test system: BT-549; assay: SRB 48 h growth assay, Breast BT-549; type: cell-based, human; settings: BT-549, Breast
[2] = test system: OVCAR-8; assay: SRB 48 h growth assay, Ovarian OVCAR-8; type: cell-based, human; settings: Homo sapiens, OVCAR-8, Ovarian
[3] = test system: NCI-H226; assay: SRB 48 h growth assay, Non-small Cell Lung NCI-H226; type: cell-based, human
[4] = test system: seven ovarian cancer cell lines (IGROV1, OVCAR-3, OVCAR-4, OVCAR-5, OVCAR-8, NCI/ADR-RES and SK-OV-3); assay: in vitro anticancer activity, ovarian panel; type: cell-based; settings: Homo sapiens, exposure at least 48 h, read-out: GI50, range over panel
[5] = test system: six leukemia cancer cell lines (CCRF-CEM, HL-60, K-562, MOLT-4, SR and RPMI-8226); assay: in vitro anticancer activity, leukemia panel; type: cell-based; settings: Homo sapiens, exposure at least 48 h, read-out: GI50, range over panel
[6] = test system: six breast cancer cell line (MCF-7, MDA-MB-231/ATCC, HS 578T, TD-47D, MDA-MB-468 and BT-549); assay: in vitro anticancer activity, breast panel; type: cell-based; settings: Homo sapiens; six breast cancer cell lines, exposure at least 48 h; read-out: GI50, range over panel
[7] = test system: K-562; assay: SRB 48 h growth assay, Leukemia K-562; type: cell-based, human
[8] = test system: ACHN; assay: SRB 48 h growth assay, Renal ACHN; type: cell-based, human; settings: for GI50: Homo sapiens
[9] = test system: six CNS cancer cell line (SF-268, SF-295, SF-539, SNB-19, SNB-75 and U251); assay: in vitro anticancer activity, CNS panel; type: cell-based; settings: Homo sapiens; six CNS cancer cell lines, exposure at least 48 h; read-out: GI50, range over panel
[10] = test system: HOP-92; assay: SRB 48 h growth assay, Non-small Cell Lung HOP-92; type: cell-based, human; settings: HOP-92, Non-small Cell Lung
[11] = test system: MDA-MB-435; assay: SRB 48 h growth assay, Melanoma MDA-MB-435; type: cell-based, human; settings: Homo sapiens, MDA-MB-435, Melanoma
[12] = test system: HS578T; assay: SRB 48 h growth assay, Breast HS578T; type: cell-based, human; settings: Homo sapiens, Hs-578T
[13] = test system: RXF393; assay: SRB 48 h growth assay, Renal RXF393; type: cell-based, human
[14] = test system: A549/ATCC; assay: SRB 48 h growth assay, Non-small Cell Lung A549/ATCC; type: cell-based, human
[15] = test system: SNB-75; assay: SRB 48 h growth assay, CNS SNB-75; type: cell-based, human; settings: SNB-75, CNS; for GI50: Homo sapiens
[16] = test system: NCI-H522; assay: SRB 48 h growth assay, Non-small Cell Lung NCI-H522; type: cell-based, human
[17] = test system: SNB-19; assay: SRB 48 h growth assay, CNS SNB-19; type: cell-based, human; settings: Homo sapiens, SNB-19, CNS
[18] = test system: PC-3; assay: SRB 48 h growth assay, Prostate PC-3; type: cell-based, human; settings: PC-3, Prostate
[19] = test system: DU-145; assay: SRB 48 h growth assay, Prostate DU-145; type: cell-based, human; settings: DU-145, Prostate; for GI50: Homo sapiens
[20] = test system: SW-620; assay: SRB 48 h growth assay, Colon SW-620; type: cell-based, human; settings: SW-620, Colon
[21] = in vitro anticancer activity, melanoma panel; type: cell-based; settings: Homo sapiens; nine melanoma cell lines, exposure at least 48 h; read-out: GI50, range over panel
[22] = test system: SK-MEL-5; assay: SRB 48 h growth assay, Melanoma SK-MEL-5; type: cell-based, human; settings: SK-MEL-5, Melanoma
[23] = test system: UACC-257; assay: SRB 48 h growth assay, Melanoma UACC-257; type: cell-based, human; settings: UACC-257, Melanoma
[24] = test system: CCRF-CEM; assay: SRB 48 h growth assay, Leukemia CCRF-CEM; type: cell-based, human; settings: Homo sapiens
[25] = test system: TK-10; assay: SRB 48 h growth assay, Renal TK-10; type: cell-based, human; settings: TK-10, Renal; for GI50: Homo sapiens
[26] = test system: MDA-MB-468; assay: SRB 48 h growth assay, Breast MDA-MB-468; type: cell-based, human; settings: MDA-MB-468, Breast
[27] = Homo sapiens, read-out: Growth Inhibition GI50
[28] = Homo sapiens, read-out: Log10 GI50 (converted)
[29] = Homo sapiens, read-out: Log10 LC50 (converted)
[30] = read-out: Growth Inhibition GI50
[31] = read-out: Log10 GI50 (converted)
[32] = read-out: Log10 LC50 (converted)

C#Cc1ccc(-n2c(/C=C/c3ccc4ccccc4n3)nc3ncccc3c2=O)cc1 [4t, (E)-3-(4-Ethynylphenyl)-2-(2-(quinolin-2-yl)vinyl)pyrido[2,3-d]pyrimidin-4(3H)-one]
Log10 TGI50 [1]: −5.87
GI50 [1, 27]: 350 nM
GI50 [1, 28]: 355 nM
CC50 [1, 29]: 5500 nM
GI50 [2, 30]: 340 nM
GI50 [2, 31]: 347 nM
CC50 [2, 32]: > 100000 nM
Log10 TGI50 [3]: −6.15
GI50 [3, 27]: 250 nM
GI50 [3, 28]: 251 nM
LC50 [3, 29]: 5890 nM
GI50 [4]: 2410 to 32300 nM
GI50 [5]: 3200 to 7350 nM
GI50 [6]: 2310 to 11400 nM
GI50 ([7]; Homo sapiens, K562, K-562, Leukemia, read-out: Growth Inhibition GI50): 330 nM
GI50 ([7]; Homo sapiens, K562, K-562, Leukemia, read-out: Log10 GI50 (converted)): 331 nM
CC50 ([7]; Homo sapiens, K562, K-562, Leukemia, read-out: Log10 LC50 (converted)): > 100000 nM
Log10 TGI50 ([7]; K-562, Leukemia): >−4.00
Log10 TGI50 [8]: −5.89
GI50 [8, 30]: 320 nM
GI50 [8, 31]: 324 nM
GI50 [9]: 940 to 5240 nM
Log10 TGI50 [10]: −5.01
GI50 [10, 27]: 180 nM
GI50 [10, 28]: 186 nM
CC50 [10, 29]: > 100000 nM
GI50 [11, 30]: 190 nM
GI50 [11, 31]: 195 nM
GI50 [12, 30]: 240 nM
GI50 [12, 31]: 240 nM
CC50 [12, 32]: > 100000 nM
Log10 TGI50 [13]: −6.07
GI50 ([13]; Homo sapiens, RXF 393, read-out: Growth Inhibition GI50): 250 nM
GI50 ([13]; Homo sapiens, RXF 393, read-out: Log10 GI50 (converted)): 257 nM
CC50 ([13]; Homo sapiens, RXF 393, read-out: Log10 LC50 (converted)): 5010 nM
Log10 TGI50 [14]: −5.74
GI50 [14, 27]: 350 nM
GI50 [14, 28]: 355 nM
CC50 [14, 29]: > 100000 nM
GI50 [15, 30]: 330 nM
GI50 [15, 31]: 339 nM
Log10 TGI50 [15]: −5.85
Log10 TGI50 [16]: −6.10
GI50 [16, 27]: 270 nM
GI50 [16, 28]: 269 nM
CC50 [16, 29]: 4900 nM
GI50 [17, 30]: 720 nM
GI50 [17, 31]: 724 nM
CC50 [17, 32]: > 100000 nM
GI50 [18, 27]: 340 nM
GI50 [18, 28]: 339 nM
CC50 [18, 29]: > 100000 nM
Log10 TGI50 [18]: −5.76
Log10 TGI50 [19]: −6.15
GI50 [19, 30]: 280 nM
GI50 [19, 31]: 282 nM
GI50 [20, 27]: 350 nM
GI50 [20, 28]: 355 nM
CC50 [20, 29]: 3890 nM
Log10 TGI50 [20]: −5.90
GI50 [21]: 1600 to 6300 nM
GI50 [22, 27]: 170 nM
GI50 [22, 28]: 178 nM
CC50 [22, 29]: 759 nM
Log10 TGI50 [22]: −6.43
GI50 [23, 27]: 430 nM
GI50 [23, 28]: 437 nM
CC50 [23, 29]: 8710 nM
Log10 TGI50 [23]: −5.66
CC50 ([24]; CCKF-CEM, read-out: Log10 LC50 (converted)): > 100000 nM
GI50 [24, 30]: 260 nM
GI50 [24, 31]: 263 nM
GI50 [25, 30]: 430 nM
GI50 [25, 31]: 437 nM
Log10 TGI50 [25]: −5.82
GI50 [26, 27]: 230 nM
GI50 [26, 28]: 234 nM
CC50 [26, 29]: 3470 nM
Log10 TGI50 [26]: −6.05

Source: patent US9783537B2, “3-(4-ethylnylphenyl) pyridopyrimidinone compounds and process for preparation thereof useful as potential anticancer agents” (Council of Scientific & Industrial Research, priority 2013, dated 2017)
